Key:
Human HDAC7 = target: T1, Human HDAC7 (Homo sapiens, UniProt Q8WUI4); experiment: HDAC7 biochemical assay, class IIa-specific substrate; settings: read-out: HDAC Isoform IC50 (nM) 7
T1 construct: (a.a. 518-end) with N-terminal GST tag; GST (N); host or cells: baculovirus expression system
T1 sequence (Q8WUI4 518-952 limits assumed): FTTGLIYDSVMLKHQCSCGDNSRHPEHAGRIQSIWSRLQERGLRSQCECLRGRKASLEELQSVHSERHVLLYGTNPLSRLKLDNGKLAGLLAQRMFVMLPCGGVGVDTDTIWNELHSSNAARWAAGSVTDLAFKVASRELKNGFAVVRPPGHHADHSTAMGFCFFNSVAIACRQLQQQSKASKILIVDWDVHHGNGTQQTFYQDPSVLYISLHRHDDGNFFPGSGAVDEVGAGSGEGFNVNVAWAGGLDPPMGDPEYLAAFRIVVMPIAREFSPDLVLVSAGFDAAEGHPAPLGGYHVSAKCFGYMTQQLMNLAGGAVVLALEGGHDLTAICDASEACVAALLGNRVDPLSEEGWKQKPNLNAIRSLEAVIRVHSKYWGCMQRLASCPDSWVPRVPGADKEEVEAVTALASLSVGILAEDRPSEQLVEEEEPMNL
Summary of the method: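 GST-tagged HDAC7 (a.a. 518-end, baculovirus-expressed) at 0.001 ng/ul with 50 μM Boc-Lys(trifluoroacetyl)-AMC substrate, 30 min at room temperature in pH 8.0 Tris buffer with BSA, 1% DMSO final. Developer then releases AMC; fluorescence read at 360/460 nm.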

Human HDAC8 = target: T2, Human HDAC8 (Homo sapiens, UniProt Q9BY41); experiment: HDAC8 biochemical assay, AMC-labeled peptide substrate; settings: read-out: HDAC Isoform IC50 (nM) 8
T2 construct: full length with C-terminal His tag, MW=42.6 kDa; His (C); host or cells: baculovirus expression system
T2 sequence (Q9BY41 1-377): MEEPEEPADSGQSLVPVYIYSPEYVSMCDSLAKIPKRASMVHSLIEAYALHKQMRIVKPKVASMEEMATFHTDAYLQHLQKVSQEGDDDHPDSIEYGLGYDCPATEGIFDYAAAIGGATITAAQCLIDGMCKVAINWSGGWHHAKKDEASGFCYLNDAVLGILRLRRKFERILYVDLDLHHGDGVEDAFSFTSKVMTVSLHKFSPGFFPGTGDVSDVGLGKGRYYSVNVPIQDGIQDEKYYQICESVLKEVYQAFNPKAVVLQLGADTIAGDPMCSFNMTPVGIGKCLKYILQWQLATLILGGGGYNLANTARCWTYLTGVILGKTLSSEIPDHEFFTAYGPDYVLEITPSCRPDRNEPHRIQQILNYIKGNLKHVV
Protocol: (§1) Activity against all zinc-dependent HDACs 1 to 11 was assessed by using an acetylated AMC-labeled peptide substrate. The substrate RHKK(Ac)AMC was used for HDAC1, HDAC2, HDAC3, HDAC6 and HDAC10; the substrate used for HDAC8 was RHK(Ac)K(Ac)AMC. Activity against the class IIa HDACs (HDAC4, 5, 7, 9) and HDAC11 was determined using a class IIa-specific substrate, BOC-Lys(trifluoroacetyl)-AMC (“Trifluoroacetyl Lysine”; see Lahm et al, 2007, PNAS, 104, 17335-17340). All assays were based on the AMC-labeled substrate and developer combination.
(§2) The protocol involved a two-step reaction: first, the substrate with the acetylated lysine side chain is incubated with a sample containing HDAC activity, to produce the deacetylated products, which are then digested in the second step by the addition of developer to produce the fluorescent signal proportional to the amount of deacetylated substrates.
Human HDAC8 (GenBankAccession No. NM_018486), full length with C-terminal His tag, MW=42.6 kDa, expressed in a baculovirus expression system.
(§3) Assay Buffer: 50 mM Tris-HCl, pH8.0, 137 mM NaCl, 2.7 mM KCl, 1 mM MgC2. Before use, 1 mg/mL BSA and DMSO are added.
HDAC8: 1 ng/ul HDAC8 and 100 µM HDAC8 substrate are in the reaction buffer with 1% DMSO final. Incubate for 2 hours at 30° C.
(§4) Stage 1: Deacetylation of substrate by incubation of HDAC enzymes with compounds
(§5) Stage 2: Development by addition of Developer to digest the deacetylated substrate, and generate the fluorescent colour; Detection: 360/460 Ex/Em

Human HDAC11 = target: T3, Human HDAC11 (Homo sapiens, UniProt Q96DB2); experiment: HDAC11 biochemical assay, class IIa-specific substrate; settings: read-out: HDAC Isoform IC50 (nM) 11
T3 construct: Human HDAC11 (full length); His (N); host or cells: baculovirus expression system
T3 sequence (Q96DB2 1-347): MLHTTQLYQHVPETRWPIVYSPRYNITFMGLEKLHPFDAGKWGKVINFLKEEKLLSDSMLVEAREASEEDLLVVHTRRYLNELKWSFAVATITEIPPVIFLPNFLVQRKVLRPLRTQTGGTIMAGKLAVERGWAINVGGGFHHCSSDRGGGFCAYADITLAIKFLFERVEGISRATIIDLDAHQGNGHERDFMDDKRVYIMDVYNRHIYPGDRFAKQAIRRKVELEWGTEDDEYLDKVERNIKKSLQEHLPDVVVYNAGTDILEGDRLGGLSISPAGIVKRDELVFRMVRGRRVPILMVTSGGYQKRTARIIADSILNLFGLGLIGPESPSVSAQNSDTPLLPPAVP
Protocol: as §1, §2
Human HDAC11 (full length) (GenBank Accession No. NM_024827) with N-terminal His tag, MW=42.9 kDa, expressed in baculovirus expression system.
as §3
HDAC11: 5 ng/ul HDAC11 and 50 μMHDAC substrate are in the reaction buffer with 1% DMSO final. Incubate for 30 minutes at 30° C.
as §4, §5

IC50 (Human HDAC7) [nM] | IC50 (Human HDAC8) [nM] | IC50 (Human HDAC11) [nM] | Structure (SMILES)
≤ 10000 | ≤ 10000 | > 10000 | FC(F)(F)c1nc(-c2ccc(CN(c3cnccn3)c3cc(CN4CCOCC4)ccn3)s2)no1 [Example GI, N-{4-[(Morpholin-4-yl)methyl]pyridin-2-yl}-N-({5-[5-(trifluoromethyl)-1,2,4-oxadiazol-3-yl]thiophen-2-yl}methyl)pyrazin-2-amine]
≤ 500 | ≤ 10000 | > 10000 | CC(C)OC1CN(C(=O)c2cnnc(N(Cc3ccc(-c4noc(C(F)(F)F)n4)s3)c3cnccn3)c2)C1 [Example GC, 5-[3-(Propan-2-yloxy)azetidine-1-carbonyl]-N-(pyrazin-2-yl)-N-({5-[5-(trifluoromethyl)-1,2,4-oxadiazol-3-yl]thiophen-2-yl}methyl)pyridazin-3-amine]
≤ 1000 | ≤ 10000 | > 10000 | Cc1cnnc(N(Cc2ccc(-c3noc(C(F)(F)F)n3)s2)c2cnccn2)c1 [Example GN, 5-Methyl-N-(pyrazin-2-yl)-N-({5-[5-(trifluoromethyl)-1,2,4-oxadiazol-3-yl]thiophen-2-yl}methyl)pyridazin-3-amine]
≤ 500 | ≤ 10000 | > 10000 | O=C(c1cnnc(N(Cc2ccc(-c3noc(C(F)(F)F)n3)s2)c2cnccn2)c1)N1CC(C(F)F)C1 [Example GK, 5-[3-(Difluoromethyl)azetidine-1-carbonyl]-N-(pyrazin-2-yl)-N-({5-[5-(trifluoromethyl)-1,2,4-oxadiazol-3-yl]thiophen-2-yl}methyl)pyridazin-3-amine]
≤ 1000 | ≤ 10000 | > 10000 | CN(C(=O)c1cnnc(N(Cc2ccc(-c3noc(C(F)(F)F)n3)s2)c2cnccn2)c1)S(C)(=O)=O [Example GE, N-Methanesulfonyl-N-methyl-6-[(pyrazin-2-yl)({5-[5-(trifluoromethyl)-1,2,4-oxadiazol-3-yl]thiophen-2-yl}methyl)amino]pyridazine-4-carboxamide]
≤ 1000 | ≤ 10000 | > 10000 | CN(C)C1CN(C(=O)c2cnnc(N(Cc3ccc(-c4noc(C(F)(F)F)n4)s3)c3cnccn3)c2)C1 [Example FX, 5-[3-(Dimethylamino)azetidine-1-carbonyl]-N-(pyrazin-2-yl)-N-({5-[5-(trifluoromethyl)-1,2,4-oxadiazol-3-yl]thiophen-2-yl}methyl)pyridazin-3-amine]
≤ 10000 | ≤ 10000 | > 10000 | O=C(c1cnnc(N(Cc2ccc(-c3noc(C(F)(F)F)n3)s2)c2cnccn2)c1)N1CC2CCC(C1)O2 [Example GA, 5-{8-Oxa-3-azabicyclo[3.2.1]octane-3-carbonyl}-N-(pyrazin-2-yl)-N-({5-[5-(trifluoromethyl)-1,2,4-oxadiazol-3-yl]thiophen-2-yl}methyl)pyridazin-3-amine]
≤ 10000 | ≤ 10000 | > 10000 | FC(F)(F)c1nc(-c2ccc(CN(c3cnccn3)c3cc(N4CCCC4)cnn3)s2)no1 [Example FQ, N-(Pyrazin-2-yl)-5-(pyrrolidin-1-yl)-N-({5-[5-(trifluoromethyl)-1,2,4-oxadiazol-3-yl]thiophen-2-yl}methyl)pyridazin-3-amine]

The remaining lines, values behind:

Structure (SMILES) | IC50 (Human HDAC7) [nM] | IC50 (Human HDAC8) [nM] | IC50 (Human HDAC11) [nM]
O=C(O)c1ccc(N(Cc2sc(-c3noc(C(F)(F)F)n3)cc2F)c2cnccn2)nn1 [Example EZ, 6-[({3-Fluoro-5-[5-(trifluoromethyl)-1,2,4-oxadiazol-3-yl]thiophen-2-yl}methyl)(pyrazin-2-yl)amino]pyridazine-3-carboxylic acid] | ≤ 10000 | ≤ 10000 | > 10000
FC(F)(F)c1nc(-c2ccc(CN(c3cnccn3)c3cc(N4CCOCC4)cnn3)s2)no1 [Example FP, 5-(Morpholin-4-yl)-N-(pyrazin-2-yl)-N-({5-[5-(trifluoromethyl)-1,2,4-oxadiazol-3-yl]thiophen-2-yl}methyl)pyridazin-3-amine] | ≤ 10000 | ≤ 10000 | > 10000
N#Cc1cnnc(N(Cc2ccc(-c3noc(C(F)(F)F)n3)s2)c2cnccn2)c1 [Example EE, 6-[(Pyrazin-2-yl)({5-[5-(trifluoromethyl)-1,2,4-oxadiazol-3-yl]thiophen-2-yl}methyl)amino]pyridazine-4-carbonitrile] | ≤ 10000 | ≤ 10000 | > 10000
O=C(c1ccc(N(Cc2ccc(-c3noc(C(F)(F)F)n3)s2)c2cnccn2)nn1)N1CCOCC1 [Example DS, 6-(Morpholine-4-carbonyl)-N-(pyrazin-2-yl)-N-({5-[5-(trifluoromethyl)-1,2,4-oxadiazol-3-yl]thiophen-2-yl}methyl)pyridazin-3-amine] | ≤ 500 | ≤ 10000 | > 10000
O=C(O)c1cnnc(N(Cc2ccc(-c3noc(C(F)(F)F)n3)s2)c2cc(C(F)(F)F)cnn2)c1 [Example ES, 6-[({5-[5-(Trifluoromethyl)-1,2,4-oxadiazol-3-yl]thiophen-2-yl}methyl)[5-(trifluoromethyl)pyridazin-3-yl]amino]pyridazine-4-carboxylicacid] | ≤ 10000 | ≤ 10000 | > 10000
CNC(=O)c1ccc(N(Cc2ccc(-c3noc(C(F)(F)F)n3)s2)c2cnccn2)nn1 [Example FC, N-Methyl-6-[(pyrazin-2-yl)({5-[5-(trifluoromethyl)-1,2,4-oxadiazol-3-yl]thiophen-2-yl}methyl)amino]pyridazine-3-carboxamide] | ≤ 500 | ≤ 10000 | > 10000
FC(F)(F)c1nc(-c2ccc(CN(c3cnccn3)c3cnc(N4CCOCC4)cn3)s2)no1 [Example BM, 5-(Morpholin-4-yl)-N-(pyrazin-2-yl)-N-({5-[5-(trifluoromethyl)-1,2,4-oxadiazol-3-yl]thiophen-2-yl}methyl)pyrazin-2-amine] | ≤ 10000 | ≤ 10000 | > 10000
FC(F)(F)c1nc(-c2ccc(CN(c3cnccn3)c3cnccn3)s2)no1 [Example BA, N-(Pyrazin-2-yl)-N-({5-[5-(trifluoromethyl)-1,2,4-oxadiazol-3-yl]thiophen-2-yl}methyl)pyrazin-2-amine] | ≤ 1000 | ≤ 10000 | > 10000
O=C(c1ccc(N(Cc2ccc(-c3noc(C(F)(F)F)n3)s2)c2cnccn2)nn1)N1CCC1 [Example FF, 6-(Azetidine-1-carbonyl)-N-(pyrazin-2-yl)-N-({5-[5-(trifluoromethyl)-1,2,4-oxadiazol-3-yl]thiophen-2-yl}methyl)pyridazin-3-amine] | ≤ 500 | ≤ 10000 | > 10000

Reference: US20210038607A1, “OXADIAZOLYLTHIOPHENE DERIVATIVES USEFUL AS HISTONE DEACETYLASE INHIBITORS” (Karus Therapeutics Limited, priority 2018, published 2021)
